Data reported in patent US20100204203A1, “Chemical Compounds 637: Pyridopyrimidinediones as PDE4 Inhibitors” (priority 2007, published 2010).

Target: recombinant Human Phosphodiesterase B2 (PDE4B2) (Homo sapiens, UniProt Q07343)
Test: Human Phosphodiesterase B2 Radiometric Assay (yttrium silicate SPA beads, [3H]cyclic AMP)
Format: biochemical
Settings: recombinant human PDE4B2, radiometric SPA assay, 8 nM [3H]cyclic AMP; read-out: PDE4B2 pIC50 (converted)
In short: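 Read-out is scintillation proximity: yttrium silicate beads (with 18 mM ZnSO4, added to stop the reaction) bind 5′AMP formed from 8 nM [3H]cAMP over 20 min. Beforehand, compound and 0.1 mg/mL enzyme were preincubated 30 min at 30 °C in pH 7.5 HEPES buffer with MgCl2, EGTA and Brij 35; pIC50 values were curve-fitted.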

Sequence of recombinant Human Phosphodiesterase B2 (PDE4B2) (Q07343 1-564 isoform Q07343-2): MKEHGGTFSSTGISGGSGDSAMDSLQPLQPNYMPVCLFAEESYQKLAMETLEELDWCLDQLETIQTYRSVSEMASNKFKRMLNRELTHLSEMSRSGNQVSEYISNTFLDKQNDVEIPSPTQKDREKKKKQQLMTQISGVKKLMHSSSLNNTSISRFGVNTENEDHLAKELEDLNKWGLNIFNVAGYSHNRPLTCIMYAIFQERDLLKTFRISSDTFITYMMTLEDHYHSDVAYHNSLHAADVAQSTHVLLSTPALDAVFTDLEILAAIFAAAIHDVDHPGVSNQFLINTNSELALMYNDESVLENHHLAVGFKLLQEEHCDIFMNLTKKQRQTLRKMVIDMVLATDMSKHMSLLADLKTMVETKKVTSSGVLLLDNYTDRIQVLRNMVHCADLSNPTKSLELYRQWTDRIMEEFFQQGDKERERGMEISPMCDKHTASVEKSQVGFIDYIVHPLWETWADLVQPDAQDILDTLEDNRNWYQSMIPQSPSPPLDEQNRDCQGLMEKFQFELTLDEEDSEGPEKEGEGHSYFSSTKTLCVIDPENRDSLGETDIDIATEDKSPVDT

Compared with `O=c1c2cc(F)cnc2n(-c2cccc(-c3ccc(CN4CCOCC4)cc3)c2)c(=O)n1[C@H]1CC[C@@H](NCc2cn3cc(F)ccc3n2)CC1` [Example 76, 6-fluoro-3-(cis-4-{[(6-fluoroimidazo[1,2-a]pyridin-2-yl)methyl]amino}cyclohexyl)-1-[4′-(morpholin-4-ylmethyl)biphenyl-3-yl]pyrido[2,3-d]pyrimidine-2,4(1H,3H)-dione ditrifluoroacetic acid], `O=C(N[C@H]1CC[C@@H](n2c(=O)c3cc(F)cnc3n(-c3cccc(-c4ccc(OCCCN5CCOCC5)cc4)c3)c2=O)CC1)c1cn2cc(F)ccc2n1` [Example 81, 6-fluoro-N-{cis-4-[6-fluoro-1-[4′-(3-morpholin-4-ylpropoxy)biphenyl-3-yl]-2,4-dioxo-1,4-dihydropyrido[2,3-d]pyrimidin-3(2H)-yl]cyclohexyl}imidazo[1,2-a]pyridine-2-carboxamide] is 50-fold lower in IC50: 316 pM for the first, 6.31 pM for the second.

Going from `CNCCOc1ccc(-c2cccc(-n3c(=O)n([C@H]4CC[C@@H](NC(=O)c5cn6cc(F)ccc6n5)CC4)c(=O)c4cc(F)cnc43)c2)cc1` [Example 77, 6-fluoro-N-{cis-4-[6-fluoro-1-{4′-[2-(methylamino)ethoxy]biphenyl-3-yl}-2,4-dioxo-1,4-dihydropyrido[2,3-d]pyrimidin-3(2H)-yl]cyclohexyl}imidazo[1,2-c]pyridine-2-carboxamide] to `CN(C)CCOc1ccc(-c2cccc(-n3c(=O)n([C@H]4CC[C@@H](NC(=O)c5cn6cc(F)ccc6n5)CC4)c(=O)c4cc(F)cnc43)c2)cc1` [Example 78, N-{cis-4-[1-{4′-[2-(dimethylamino)ethoxy]biphenyl-3-yl}-6-fluoro-2,4-dioxo-1,4-dihydropyrido[2,3-d]pyrimidin-3(2H)-yl]cyclohexyl}-6-fluoroimidazo[1,2-a]pyridine-2-carboxamide], the IC50 rises from 25.1 pM to 39.8 pM (1.6-fold).

Compared with `O=C(N[C@H]1CC[C@@H](n2c(=O)c3cc(F)cnc3n(-c3cccc(-c4ccc(OCCN5CCCC5)cc4)c3)c2=O)CC1)c1cn2cc(F)ccc2n1` [Example 79, 6-fluoro-N-{cis-4-[6-fluoro-2,4-dioxo-1-[4′-(2-pyrrolidin-1-ylethoxy)biphenyl-3-yl]-1,4-dihydropyrido[2,3-d]pyrimidin-3(2H)-yl]cyclohexyl}imidazo[1,2-a]pyridine-2-carboxamide], `O=C(N[C@H]1CC[C@@H](n2c(=O)c3cc(F)cnc3n(-c3cccc(-c4ccc(CCCN5CCNCC5)cc4)c3)c2=O)CC1)c1cn2cc(F)ccc2n1` [Example 97, 6-fluoro-N-{cis-4-[6-fluoro-2,4-dioxo-1-[4′-(3-piperazin-1-ylpropyl)biphenyl-3-yl]-1,4-dihydropyrido[2,3-d]pyrimidin-3(2H)-yl]cyclohexyl}imidazo[1,2-a]pyridine-2-carboxamide] is 3.2-fold lower in IC50: 20 pM for the first, 6.31 pM for the second.

Going from `O=C(N[C@H]1CC[C@@H](n2c(=O)c3cc(F)cnc3n(-c3cccc(-c4ccc(F)cc4O)c3)c2=O)CC1)c1cn2cc(F)ccc2n1` [Example 80, 6-fluoro-N-{cis-4-[6-fluoro-1-(4′-fluoro-2′-hydroxybiphenyl-3-yl)-2,4-dioxo-1,4-dihydropyrido[2,3-d]pyrimidin-3(2H)-yl]cyclohexyl}imidazo[1,2-a]pyridine-2-carboxamide] to `CN(C)Cc1ccc(-c2cccc(-n3c(=O)n([C@H]4CC[C@@H](NC(=O)c5cn6cc(F)ccc6n5)CC4)c(=O)c4cc(F)cnc43)c2)c(O)c1` [Example 94, N-{cis-4-[1-{4′-[(dimethylamino)methyl]-2′-hydroxybiphenyl-3-yl}-6-fluoro-2,4-dioxo-1,4-dihydropyrido[2,3-d]pyrimidin-3(2H)-yl]cyclohexyl}-6-fluoroimidazo[1,2-a]pyridine-2-carboxamide], the IC50 rises from 79.4 pM to 316 pM (4-fold).

`CN(C)CCOc1cc(F)ccc1-c1cccc(-n2c(=O)n([C@H]3CC[C@@H](NC(=O)c4cn5cc(F)ccc5n4)CC3)c(=O)c3cc(F)cnc32)c1` [Example 82, N-{cis-4-[1-{2′-[2-(dimethylamino)ethoxy]-4′-fluorobiphenyl-3-yl}-6-fluoro-2,4-dioxo-1,4-dihydropyrido[2,3-d]pyrimidin-3 (2H)-yl]cyclohexyl}-6-fluoroimidazo[1,2-a]pyridine-2-carboxamide] and `CN(C)CCCOc1cc(F)ccc1-c1cccc(-n2c(=O)n([C@H]3CC[C@@H](NC(=O)c4cn5cc(F)ccc5n4)CC3)c(=O)c3cc(F)cnc32)c1` [Example 84, N-{cis-4-[1-{2′-[3-(dimethylamino)propoxy]-4′-fluorobiphenyl-3-yl}-6-fluoro-2,4-dioxo-1,4-dihydropyrido[2,3-d]pyrimidin-3(2H)-yl]cyclohexyl}-6-fluoroimidazo[1,2-a]pyridine-2-carboxamide] are the same in IC50: 200 pM for the first, 200 pM for the second.

Compared with `CN(C)CCOc1cc(F)ccc1-c1cccc(-n2c(=O)n([C@H]3CC[C@@H](N(CCN(C)C)C(=O)c4cn5cc(F)ccc5n4)CC3)c(=O)c3cc(F)cnc32)c1` [Example 83, N-{cis-4-[1-{2′-[2-(dimethylamino)ethoxy]-4′-fluorobiphenyl-3-yl}-6-fluoro-2,4-dioxo-1,4-dihydropyrido[2,3-d]pyrimidin-3(2H)-yl]cyclohexyl}-N-[2-(dimethylamino)ethyl]-6-fluoroimidazo[1,2-a]pyridine-2-carboxamide], `O=C(N[C@H]1CC[C@@H](n2c(=O)c3cc(F)cnc3n(-c3cccc(-c4ccc(F)cc4OCCN4CCNCC4)c3)c2=O)CC1)c1cn2cc(F)ccc2n1` [Example 85, 6-fluoro-N-{cis-4-[6-fluoro-1-[4′-fluoro-2′-(2-piperazin-1-ylethoxy)biphenyl-3-yl]-2,4-dioxo-1,4-dihydropyrido[2,3-d]pyrimidin-3(2H)-yl]cyclohexyl}imidazo[1,2-a]pyridine-2-carboxamide] is 20-fold lower in IC50: 6310 pM for the first, 316 pM for the second.

First: O=c1c2cc(F)cnc2n(-c2cccc(-c3ccccc3)c2)c(=O)n1[C@H]1CC[C@@H](NCCO)CC1 [Example 86, 1-biphenyl-3-yl-6-fluoro-3-{cis-4-[(2-hydroxyethyl)amino]cyclohexyl}pyrido[2,3-d]pyrimidine-2,4(1H,3H)-dione]
Second: CN(C)CCCC(=O)N[C@H]1CC[C@@H](n2c(=O)c3cc(F)cnc3n(-c3cccc(-c4ccccc4)c3)c2=O)CC1 [Example 93, N-[cis-4-(1-biphenyl-3-yl-6-fluoro-2,4-dioxo-1,4-dihydropyrido[2,3-d]pyrimidin-3(2H)-yl)cyclohexyl]-4-(dimethylamino)butanamide]
The IC50 of the first is 6.3-fold higher: 31600 pM for the first, 5010 pM for the second.

Going from `C[N+](C)(C)Cc1ccc(-c2cccc(-n3c(=O)n([C@H]4CC[C@@H](NC(=O)c5cn6cc(F)ccc6n5)CC4)c(=O)c4cc(F)cnc43)c2)cc1` [Example 87, {3-[6-fluoro-3-(cis-4-{[(6-fluoroimidazo[1,2-a]pyridin-2-yl)carbonyl]amino}cyclohexyl)-2,4-dioxo-3,4-dihydropyrido[2,3-a]pyrimidin-1(2H)-yl]biphenyl-4-yl]-N,N,N-trimethylmethanaminium iodide] to `CC(C)NCCCc1ccc(-c2cccc(-n3c(=O)n([C@H]4CC[C@@H](NC(=O)c5cn6cc(F)ccc6n5)CC4)c(=O)c4cc(F)cnc43)c2)cc1` [Example 95, 6-fluoro-N-{cis-4-[6-fluoro-1-{4′-[3-(isopropylamino)propyl]biphenyl-3-yl]-2,4-dioxo-1,4-dihydropyrido[2,3-d]pyrimidin-3(2H)-yl]cyclohexyl}imidazo[1,2-a]pyridine-2-carboxamide], the IC50 falls from 316 pM to 20 pM (16-fold).

First: CN(C)Cc1ccccc1-c1cccc(-n2c(=O)n([C@H]3CC[C@@H](NC(=O)[C@H]4CCCN4C)CC3)c(=O)c3cc(F)cnc32)c1 [Example 88, N-{cis-4-[1-{2′-[(dimethylamino)methyl]biphenyl-3-yl}-6-fluoro-2,4-dioxo-1,4-dihydropyrido[2,3-d]pyrimidin-3(2H)-yl]cyclohexyl}-1-methyl-D-prolinamide]
Second: CC(=O)N[C@H]1CC[C@@H](n2c(=O)c3cc(F)cnc3n(-c3cccc(-c4ccc(CN(C)C)cc4)c3)c2=O)CC1 [Example 89, N-{cis-4-[1-{4′-[(dimethylamino)methyl]biphenyl-3-yl}-6-fluoro-2,4-dioxo-1,4-dihydropyrido[2,3-d]pyrimidin-3(2H)-yl]cyclohexyl}acetamide]
The IC50 of the first is 25-fold higher: 50100 pM for the first, 2000 pM for the second.

First: CN(Cc1ccccc1)C(=O)c1cccc(-n2c(=O)n([C@H]3CC[C@@H](NC(=O)c4cn5cc(F)ccc5n4)CC3)c(=O)c3cc(F)cnc32)c1 [Example 90, N-{cis-4-[1-(3-{[benzyl(methyl)amino]carbonyl}phenyl)-6-fluoro-2,4-dioxo-1,4-dihydropyrido[2,3-d]pyrimidin-3(2H)-yl]cyclohexyl}-6-fluoroimidazo[1,2-a]pyridine-2-carboxamide]
Second: O=C(NCc1ccccc1)c1cccc(-n2c(=O)n([C@H]3CC[C@@H](NC(=O)c4cn5cc(F)ccc5n4)CC3)c(=O)c3cc(F)cnc32)c1 [Example 92, N-{cis-4-[1-{3-[(benzylamino)carbonyl]phenyl}-6-fluoro-2,4-dioxo-1,4-dihydropyrido[2,3-d]pyrimidin-3(2H)-yl]cyclohexyl}-6-fluoroimidazo[1,2-a]pyridine-2-carboxamide]
The IC50 of the first is 2-fold higher: 1260 pM for the first, 631 pM for the second.

Compared with `N[C@H]1CC[C@@H](n2c(=O)c3cc(F)cnc3n(-c3cccc(C(=O)O)c3)c2=O)CC1` [Example 91, 3-[3-(cis-4-aminocyclohexyl)-6-fluoro-2,4-dioxo-3,4-dihydropyrido[2,3-d]pyrimidin-1(2H)-yl]benzoic acid], `O=C(N[C@H]1CC[C@@H](n2c(=O)c3cc(F)cnc3n(-c3cccc(-c4ccc(CCCNCCCO)cc4)c3)c2=O)CC1)c1cn2cc(F)ccc2n1` [Example 96, 6-fluoro-N-{cis-4-[6-fluoro-1-(4′-{3-[(3-hydroxypropyl)amino]propyl}biphenyl-3-yl)-2,4-dioxo-1,4-dihydropyrido[2,3-d]pyrimidin-3(2H)-yl]cyclohexyl}imidazo[1,2-a]pyridine-2-carboxamide] is 630-fold lower in IC50: 7940 pM for the first, 12.6 pM for the second.
